Source: PMC8190884 (ACS Omega, 2021)
Marks after values point to notes of the source that are not given here.

Tests used:
[1] = target: T1, HIV reverse transcriptase (RT) (Human immunodeficiency virus type 1 group M subtype B, UniProt P04585); assay: Pre-steady-state observed incorporation rate constant; type: biochemical, HIV-1; conditions: 5 μM nucleotide; for kobs ± standard deviation: 37 °C
[2] = target: T1, HIV reverse transcriptase (RT); assay: Pre-steady-state determination of KD and kpol; type: biochemical, HIV-1; conditions: for kpol (maximum incorporation rate) / Kd: curve fit ± standard error; for Kd: Kd (equilibrium dissociation constant)
HIV RT [3] = assay: Primer extension inhibition assay on a 100-nt DNA template; type: biochemical, HIV-1; conditions: 5 μM dNTPs, 3 μM analogue, 0.5 or 6 mM Mg2+, 30 min
HIV RT [4] = conditions: 6 mM Mg2+, different template; ref manuscript in preparation; cited from earlier work
HIV RT [5] = assay: Steady-state incorporation of 3′-O-CH3 dTTP by HIV RT; type: biochemical, HIV-1; conditions: 100 μM 3′-O-methyl dTTP; for kobs ± standard deviation (steady-state): 20 nM primer–template, 20 nM RT, 30 min
HIV = conditions: cited from earlier work

| Compound | 6/0.5 mM Mg2+ with the same nucleotide (ratio of kobs; fold slower in 0.5 mM) [1] | relative rate vs dTTP same [Mg2+] ([1]; 0.5 mM Mg2+) | kobs ± standard deviation ([1]; 0.5 mM free Mg2+) [s^–1] | relative rate vs dTTP same [Mg2+] ([1]; 6 mM Mg2+) | kobs ± standard deviation ([1]; 6 mM Mg2+) [s^–1] | further results |
| --- | --- | --- | --- | --- | --- | --- |
| Cc1cn([C@H]2C=C[C@@H](COP(=O)(O)OP(=O)(O)OP(=O)(O)O)O2)c(=O)[nH]c1=O [d4TTP, 2′,3′-didehydro-2′,3′-dideoxythymidine triphosphate] | 4.6 | 0.21 | 1.8 ± 0.7 | 0.59 | 8.3 ± 0.8 | fold slower kobs compared to dTTP ([1]; 6 mM (high) Mg2+): about 2 fold; efficiency decline (fold decline in kpol/Kd relative to dTTP at the same Mg2+) ([2]; 0.5 mM Mg2+): 6.7 fold; kpol/Kd (catalytic efficiency) ([2]; 0.5 mM Mg2+): 0.64; kpol (maximum incorporation rate) ([2]; 0.5 mM Mg2+): 4.9 ± 0.5 s^–1; efficiency decline (fold decline in kpol/Kd relative to dTTP at the same Mg2+) ([2]; 6 mM Mg2+): 3.2 fold; kpol/Kd (catalytic efficiency) ([2]; 6 mM Mg2+): 1.9; kpol (maximum incorporation rate) ([2]; 6 mM Mg2+): 22.3 ± 1.7 s^–1 |
| CC[C@]1(COP(=O)(O)OP(=O)(O)OP(=O)(O)O)O[C@@H](n2cc(C)c(=O)[nH]c2=O)C[C@@H]1O [4′-C-ethyl dTTP] |  | 0.15 | 1.3 ± 0.1 | 0.28 | 3.9 ± 0.4 | incorporation rate, fold faster than D-carba dTTP ([1]; 6 mM Mg2+): about 3 fold; inhibition of primer extension (terminated vs fully extended products), in words (HIV RT [3]): less effective |
| Cc1cn([C@H]2C[C@H](O)[C@@](C)(COP(=O)(O)OP(=O)(O)OP(=O)(O)O)O2)c(=O)[nH]c1=O [4′-C-methyl dTTP] | 0.88 | 0.52 | 4.5 ± 1.4 | 0.28 | 3.9 ± 2.8 | incorporation rate, fold faster than D-carba dTTP ([1]; 6 mM Mg2+): about 3 fold |
| Cc1cn([C@@H]2C[C@H](COP(=O)(O)OP(=O)(O)OP(=O)(O)O)[C@@H](O)C2)c(=O)[nH]c1=O [D-carba dTTP] | not strongly affected | 0.13 | 1.1 ± 0.5 | 0.092 | 1.3 ± 0.1 | inhibition of primer extension (terminated vs fully extended products), in words (HIV RT [3]): by far the weakest inhibitor; inhibition of primer extension (terminated vs fully extended products), in words (HIV RT [3]; listed as D-carba): weak inhibitor under both conditions; KD, fold higher than 4′-C-ethyl and 4′-C-methyl dTTP (HIV RT [4]): 4–8 fold |
| Cc1cn([C@H]2CC[C@@H](COP(=O)(O)OP(=O)(O)OP(=O)(O)O)O2)c(=O)[nH]c1=O [ddTTP, dideoxy TTP] | 5.1 | 0.16 | 1.4 ± 0.7 | 0.51 | 7.2 ± 1.0 | fold slower kobs compared to dTTP ([1]; 6 mM (high) Mg2+): about 2 fold |
| CO[C@H]1C[C@H](n2cc(C)c(=O)[nH]c2=O)O[C@@H]1COP(=O)(O)OP(=O)(O)OP(=O)(O)O [3′-O-methyl dTTP] |  |  |  |  |  | 6/0.5 mM Mg2+ with the same nucleotide (steady-state rates) (HIV RT [5]): 5.4; kobs ± standard deviation (steady-state) (HIV RT [5]; 0.5 mM Mg2+): 3.3 × 10^–5± 0.6 × 10^–5 ^c nM/min; kobs ± standard deviation (steady-state) (HIV RT [5]; 6 mM Mg2+): 1.8 × 10^–4± 0.2 × 10^–4 ^c nM/min; inhibition of primer extension (terminated vs fully extended products), in words (HIV RT [3]): no inhibition |
| Cc1cn([C@H]2C[C@H](O)[C@@H](CO[P@](=O)(O)O[P@@](=O)(O)OP(=O)(O)O)O2)c(=O)[nH]c1=O [dTTP, Deoxythymidine triphosphate] | 1.6 | 1 | 8.6 ± 1.3 | 1 | 14.1 ± 1.2 | efficiency decline (fold decline in kpol/Kd relative to dTTP at the same Mg2+) ([2]; 0.5 mM Mg2+): 1 fold; kpol/Kd (catalytic efficiency) ([2]; 0.5 mM Mg2+): 4.3; kpol (maximum incorporation rate) ([2]; 0.5 mM Mg2+): 14.3 ± 0.8 s^–1; efficiency decline (fold decline in kpol/Kd relative to dTTP at the same Mg2+) ([2]; 6 mM Mg2+): 1 fold; kpol/Kd (catalytic efficiency) ([2]; 6 mM Mg2+): 6.0; kpol (maximum incorporation rate) ([2]; 6 mM Mg2+): 25.0 ± 1.3 s^–1; Kd ([2]; 0.5 mM Mg2+): 3.3 ± 0.6 µM; Kd ([2]; 6 mM Mg2+): 4.2 ± 0.7 µM |
| Nc1ncnc2c1ncn2[C@H]1CC[C@@H](CO[P@@](=O)(O)O[P@](=O)(O)OP(=O)(O)O)O1 [ddATP] |  |  |  |  |  | selectivity index, fold lower than that for AZT (HIV): about 4.5 fold |
| Cc1cn([C@H]2C[C@H](N=[N+]=[N-])[C@@H](CO[P@](=O)(O)O[P@](=O)(O)OP(=O)(O)O)O2)c(=O)[nH]c1=O [AZTTP] | 4.5 | 0.23 | 2.0 ± 0.5 | 0.63 | 8.9 ± 1.9 | fold slower kobs compared to dTTP ([1]; 6 mM (high) Mg2+): about 2 fold; efficiency decline (fold decline in kpol/Kd relative to dTTP at the same Mg2+) ([2]; 0.5 mM Mg2+): 7.2 fold; kpol/Kd (catalytic efficiency) ([2]; 0.5 mM Mg2+): 0.6; kpol (maximum incorporation rate) ([2]; 0.5 mM Mg2+): 3.3 ± 0.3 s^–1; efficiency decline (fold decline in kpol/Kd relative to dTTP at the same Mg2+) ([2]; 6 mM Mg2+): 1.5 fold; kpol (maximum incorporation rate) ([2]; 6 mM Mg2+): 17.0 ± 0.6 s^–1; Kd ([2]; 0.5 mM Mg2+): 5.5 ± 1.7 µM |
| Cc1cn([C@H]2C[C@H](F)[C@@H](COP(=O)(O)OP(=O)(O)OP(=O)(O)O)O2)c(=O)[nH]c1=O [3′-fluoro dTTP] | 2.8 | 0.063 | 0.54 ± 0.13 | 0.11 | 1.5 ± 0.1 | fold slower kobs compared to dTTP ([1]; 0.5 mM (low) Mg2+): > 10 fold |
| Cc1cn([C@H]2C[C@H](N)[C@@H](COP(=O)(O)OP(=O)(O)OP(=O)(O)O)O2)c(=O)[nH]c1=O [3′-amino dTTP] | 3.8 | 0.094 | 0.81 ± 0.13 | 0.22 | 3.1 ± 0.1 | fold slower kobs compared to dTTP ([1]; 0.5 mM (low) Mg2+): > 10 fold |
